Experimental findings from US7754896B2, “Indol-alanine derivatives as selective S1P4-agonists” (Novartis AG, priority 2004, dated 2010) are described below.

The assay deals with T1, S1P5 (Homo sapiens, UniProt Q9H228).
T1 construct: expressed in transfected cells
Nature of the assay: GTPγS binding assay, S1P5. Type of assay: biochemical. The following applies: CHO cells expressing S1P5. The text has this: The human S1P5 (GI: 30171332 or GenBank™ accession number AY262689, TREMBL: Q9H228) is cloned by a PCR based method. Lung and spleen cDNA (marathon cDNA) is obtained from BD Biosciences Chlontech (BD Biosciences Chlontech, Palo Alto, Calif. 94303, USA); genomic DNA is isolated from HeLa cells using standard procedures. Following oligonucleotides are used for the PCR reaction: forward primer CACCATGGAGTCGGGGCTGCTGCG (−4 to 20, GenBank™ accession number AY262689) and reverse primer 5′-TCAGTCTGCAGCCGGTTCTGATACCAGAGTC (1197 to 1131, AY262689), the initiation of the translation (ATG) and the stop codon are underlined. The PCR is performed In the presence of 0.2-0.4 μg cDNA, 1× reaction buffer (10× PfuTurbo DNA polymerase buffer, Stratagene, La Jolla, Calif. 92037, USA), 0.5 μM primers, 0.25 mM dNTP's and 2.5 units PfuTurbo DNA polymerase (Stratagene), a first step at 95° C. for 2 min, 30 cycles (30 sec at 95° C., 30 sec at 60° C. and 90 sec at 72° C.) and final step of 10 min at 72° C. The amplified product of around 1100 bp is analyzed by standard agarose gel-electrophoresis. […]
Membrane proteins are prepared from wild type CHO-K1 and the CHO cell clones expressing human S1P4. […] The protein concentration is determined using the Bio Rad Protein Assay and human IgG as standard. […]

A value given as a limit tells only on which side of the number the result lay.

T1 sequence (Q9H228 whole entry): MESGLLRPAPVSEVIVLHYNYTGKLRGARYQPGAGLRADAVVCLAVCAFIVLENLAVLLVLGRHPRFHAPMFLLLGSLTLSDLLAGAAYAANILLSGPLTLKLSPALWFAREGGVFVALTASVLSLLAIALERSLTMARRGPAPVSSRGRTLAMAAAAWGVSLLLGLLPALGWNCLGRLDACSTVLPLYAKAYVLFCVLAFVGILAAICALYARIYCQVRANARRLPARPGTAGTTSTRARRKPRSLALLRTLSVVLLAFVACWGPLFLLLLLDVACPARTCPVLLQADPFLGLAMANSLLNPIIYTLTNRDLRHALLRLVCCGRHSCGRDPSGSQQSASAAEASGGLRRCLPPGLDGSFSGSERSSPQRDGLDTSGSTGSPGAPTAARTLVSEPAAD

A word on the EC50: it is the concentration giving half of the maximal effect. A high value points to weaker potency. As for `NC(CNC(=O)c1cc2c(-c3ccccc3Cc3ccccc3)cccc2[nH]1)C(=O)O` (stereo not shown) [Example 2], the EC50 is over 10 µM.
